Assay results from US20120270819A1, “USE OF COMPOUNDS WITH SGLT-1/SGLT-2 INHIBITOR ACTIVITY FOR PRODUCING MEDICAMENTS FOR TREATMENT OF BONE DISEASE” (SANOFI, priority 2009, published 2012).

Tested on: female Sprague-Dawley mature and young adult rats
Assay: Ex vivo dual energy X-ray absorptiometry (DXA) of right femur, 28-day oral rat study
Assay type: in vivo
Method: The following were evaluated: clinical signs (at least weekly), body weight (weekly), food consumption (weekly), hormones (Days 13 and 27), serum and urinary biochemical markers of bone turnover (Days 13 and 27), serum chemistry (at necropsy), bone densitometry by dual energy X-ray absorptiometry (DXA) and peripheral quantitative computed tomography (pQCT) (Week 2 and 4, as well as ex vivo), macroscopic observations at necropsy, organ weights, histopathology, biomechanical strength testing and femoral length measurements.
3.1 Ex Vivo Dual Energy X-Ray Absorptiometry (DXA)
DXA was used to measure bone mineral density (BMD), bone mineral content (BMC) and area. Single DXA scans were obtained for the excised right femur from all animals euthanized at the end of the treatment period (except three animals due to damaged femoral condyles) as well as two found dead animals. These exclusions had no adverse impact on the overall outcome of the study as sufficient specimens were measured in each groups. Scans were performed with a Hologic Discovery A bone densitometer as per PCS-MTL Standard Operating Procedures.

[1] = Mature Adults, 10 mg/kg/day (Table 5a)
[2] = Mature Adults, 10 mg/kg/day, mean
[3] = Mature Adults, 10 mg/kg/day, mean (Table 5a)
[4] = Mature Adults, 50 mg/kg/day (Table 5a)
[5] = Mature Adults, 50 mg/kg/day, mean
[6] = Mature Adults, 50 mg/kg/day, mean (Table 5a)
[7] = Young Adults, 10 mg/kg/day (Table 6a)
[8] = Young Adults, 10 mg/kg/day, mean
[9] = Young Adults, 10 mg/kg/day, mean (Table 6a)
[10] = Young Adults, 50 mg/kg/day (Table 6a)
[11] = Young Adults, 50 mg/kg/day, mean
[12] = Young Adults, 50 mg/kg/day, mean (Table 6a)

COc1ccc(Cc2c(OC3OC(CO)C(F)C(O)C3O)n[nH]c2C(F)(F)F)cc1 (stereo not drawn) [Example 5 of formula II]
DXA femur Distal Area, percent difference from Vehicle Control (Mature Adults, 10 mg/kg/day): 1.7%
DXA femur Distal BMC, percent difference from Vehicle Control (Mature Adults, 10 mg/kg/day): 6.2%
DXA femur Distal BMD, percent difference from Vehicle Control (Mature Adults, 10 mg/kg/day): 4.4%
DXA femur Global Area, percent difference from Vehicle Control (Mature Adults, 10 mg/kg/day): 1.9%
DXA femur Global BMC, percent difference from Vehicle Control (Mature Adults, 10 mg/kg/day): 6.0%
DXA femur Global BMD, percent difference from Vehicle Control (Mature Adults, 10 mg/kg/day): 4.0%
DXA femur Mid Area, percent difference from Vehicle Control (Mature Adults, 10 mg/kg/day): 3.9%
DXA femur Mid BMC, percent difference from Vehicle Control (Mature Adults, 10 mg/kg/day): 6.4%
DXA femur Mid BMD, percent difference from Vehicle Control (Mature Adults, 10 mg/kg/day): 2.4%
DXA femur Proximal Area, percent difference from Vehicle Control (Mature Adults, 10 mg/kg/day): 2.4%
DXA femur Proximal BMC, percent difference from Vehicle Control (Mature Adults, 10 mg/kg/day): 6.1%
DXA femur Proximal BMD, percent difference from Vehicle Control (Mature Adults, 10 mg/kg/day): 3.7%
DXA femur Mid Area, percent difference from Vehicle Control [1]: 3.86%
DXA femur Mid BMC, percent difference from Vehicle Control [1]: 6.45%
DXA femur Mid BMD, percent difference from Vehicle Control [1]: 2.35%
DXA femur Distal Area [2]: 0.41 cm^2
DXA femur Distal BMC [2]: 0.14 g
DXA femur Distal BMD [2]: 0.34 g/cm^2
DXA femur Global Area [2]: 1.91 cm^2
DXA femur Global BMC [2]: 0.52 g
DXA femur Global BMD [2]: 0.27 g/cm^2
DXA femur Mid Area [2]: 0.45 cm^2
DXA femur Mid BMC [2]: 0.11 g
DXA femur Mid BMD [2]: 0.24 g/cm^2
DXA femur Proximal Area [2]: 0.63 cm^2
DXA femur Proximal BMC [2]: 0.18 g
DXA femur Proximal BMD [2]: 0.28 g/cm^2
DXA femur Mid Area [3]: 0.45 cm^2
DXA femur Mid BMC [3]: 0.11 g
DXA femur Mid BMD [3]: 0.24 g/cm^2
DXA femur Distal Area, percent difference from Vehicle Control (Mature Adults, 50 mg/kg/day): −0.1%
DXA femur Distal BMC, percent difference from Vehicle Control (Mature Adults, 50 mg/kg/day): 8.3%
DXA femur Distal BMD, percent difference from Vehicle Control (Mature Adults, 50 mg/kg/day): 8.4%
DXA femur Global Area, percent difference from Vehicle Control (Mature Adults, 50 mg/kg/day): −1.2%
DXA femur Global BMC, percent difference from Vehicle Control (Mature Adults, 50 mg/kg/day): 3.7%
DXA femur Global BMD, percent difference from Vehicle Control (Mature Adults, 50 mg/kg/day): 5.0%
DXA femur Mid Area, percent difference from Vehicle Control (Mature Adults, 50 mg/kg/day): −1.0%
DXA femur Mid BMC, percent difference from Vehicle Control (Mature Adults, 50 mg/kg/day): 1.2%
DXA femur Mid BMD, percent difference from Vehicle Control (Mature Adults, 50 mg/kg/day): 2.3%
DXA femur Proximal Area, percent difference from Vehicle Control (Mature Adults, 50 mg/kg/day): 0.1%
DXA femur Proximal BMC, percent difference from Vehicle Control (Mature Adults, 50 mg/kg/day): 3.0%
DXA femur Proximal BMD, percent difference from Vehicle Control (Mature Adults, 50 mg/kg/day): 2.9%
DXA femur Mid Area, percent difference from Vehicle Control [4]: −0.97%
DXA femur Mid BMC, percent difference from Vehicle Control [4]: 1.25%
DXA femur Mid BMD, percent difference from Vehicle Control [4]: 2.26%
DXA femur Distal Area [5]: 0.41 cm^2
DXA femur Distal BMC [5]: 0.14 g
DXA femur Distal BMD [5]: 0.35 g/cm^2
DXA femur Global Area [5]: 1.85 cm^2
DXA femur Global BMC [5]: 0.51 g
DXA femur Global BMD [5]: 0.27 g/cm^2
DXA femur Mid Area [5]: 0.43 cm^2
DXA femur Mid BMC [5]: 0.11 g
DXA femur Mid BMD [5]: 0.24 g/cm^2
DXA femur Proximal Area [5]: 0.61 cm^2
DXA femur Proximal BMC [5]: 0.17 g
DXA femur Proximal BMD [5]: 0.28 g/cm^2
DXA femur Mid Area [6]: 0.43 cm^2
DXA femur Mid BMC [6]: 0.11 g
DXA femur Mid BMD [6]: 0.24 g/cm^2
DXA femur Distal Area, percent difference from Vehicle Control (Young Adults, 10 mg/kg/day): 1.7%
DXA femur Distal BMC, percent difference from Vehicle Control (Young Adults, 10 mg/kg/day): 6.4%
DXA femur Distal BMD, percent difference from Vehicle Control (Young Adults, 10 mg/kg/day): 4.7%
DXA femur Global Area, percent difference from Vehicle Control (Young Adults, 10 mg/kg/day): −2.5%
DXA femur Global BMC, percent difference from Vehicle Control (Young Adults, 10 mg/kg/day): 0.5%
DXA femur Global BMD, percent difference from Vehicle Control (Young Adults, 10 mg/kg/day): 3.2%
DXA femur Mid Area, percent difference from Vehicle Control (Young Adults, 10 mg/kg/day): −0.9%
DXA femur Mid BMC, percent difference from Vehicle Control (Young Adults, 10 mg/kg/day): −2.6%
DXA femur Mid BMD, percent difference from Vehicle Control (Young Adults, 10 mg/kg/day): −1.9%
DXA femur Proximal Area, percent difference from Vehicle Control (Young Adults, 10 mg/kg/day): −2.6%
DXA femur Proximal BMC, percent difference from Vehicle Control (Young Adults, 10 mg/kg/day): −0.8%
DXA femur Proximal BMD, percent difference from Vehicle Control (Young Adults, 10 mg/kg/day): 1.8%
DXA femur Mid Area, percent difference from Vehicle Control [7]: −0.89%
DXA femur Mid BMC, percent difference from Vehicle Control [7]: −2.61%
DXA femur Mid BMD, percent difference from Vehicle Control [7]: −1.87%
DXA femur Distal Area [8]: 0.37 cm^2
DXA femur Distal BMC [8]: 0.10 g
DXA femur Distal BMD [8]: 0.26 g/cm^2
DXA femur Global Area [8]: 1.45 cm^2
DXA femur Global BMC [8]: 0.30 g
DXA femur Global BMD [8]: 0.21 g/cm^2
DXA femur Mid Area [8]: 0.39 cm^2
DXA femur Mid BMC [8]: 0.07 g
DXA femur Mid BMD [8]: 0.17 g/cm^2
DXA femur Proximal Area [8]: 0.50 cm^2
DXA femur Proximal BMC [8]: 0.11 g
DXA femur Proximal BMD [8]: 0.22 g/cm^2
DXA femur Mid Area [9]: 0.39 cm^2
DXA femur Mid BMC [9]: 0.07 g
DXA femur Mid BMD [9]: 0.17 g/cm^2
DXA femur Distal Area, percent difference from Vehicle Control (Young Adults, 50 mg/kg/day): 0.5%
DXA femur Distal BMC, percent difference from Vehicle Control (Young Adults, 50 mg/kg/day): 8.4%
DXA femur Distal BMD, percent difference from Vehicle Control (Young Adults, 50 mg/kg/day): 7.9%
DXA femur Global Area, percent difference from Vehicle Control (Young Adults, 50 mg/kg/day): −4.7%
DXA femur Global BMC, percent difference from Vehicle Control (Young Adults, 50 mg/kg/day): 0.0%
DXA femur Global BMD, percent difference from Vehicle Control (Young Adults, 50 mg/kg/day): 4.9%
DXA femur Mid Area, percent difference from Vehicle Control (Young Adults, 50 mg/kg/day): −0.8%
DXA femur Mid BMC, percent difference from Vehicle Control (Young Adults, 50 mg/kg/day): −3.2%
DXA femur Mid BMD, percent difference from Vehicle Control (Young Adults, 50 mg/kg/day): −2.6%
DXA femur Proximal Area, percent difference from Vehicle Control (Young Adults, 50 mg/kg/day): −4.9%
DXA femur Proximal BMC, percent difference from Vehicle Control (Young Adults, 50 mg/kg/day): −4.0%
DXA femur Proximal BMD, percent difference from Vehicle Control (Young Adults, 50 mg/kg/day): 1.0%
DXA femur Mid Area, percent difference from Vehicle Control [10]: −0.77%
DXA femur Mid BMC, percent difference from Vehicle Control [10]: −3.16%
DXA femur Mid BMD, percent difference from Vehicle Control [10]: −2.62%
DXA femur Distal Area [11]: 0.37 cm^2
DXA femur Distal BMC [11]: 0.10 g
DXA femur Distal BMD [11]: 0.27 g/cm^2
DXA femur Global Area [11]: 1.42 cm^2
DXA femur Global BMC [11]: 0.30 g
DXA femur Global BMD [11]: 0.21 g/cm^2
DXA femur Mid Area [11]: 0.39 cm^2
DXA femur Mid BMC [11]: 0.07 g
DXA femur Mid BMD [11]: 0.17 g/cm^2
DXA femur Proximal Area [11]: 0.49 cm^2
DXA femur Proximal BMC [11]: 0.11 g
DXA femur Proximal BMD [11]: 0.21 g/cm^2
DXA femur Mid Area [12]: 0.39 cm^2
DXA femur Mid BMC [12]: 0.07 g
DXA femur Mid BMD [12]: 0.17 g/cm^2
